Reference: patent US20100113334A1, “METHODS FOR REDUCING OR PREVENTING TRANSMISSION OF NOSOCOMIAL PATHOGENS IN A HEALTH CARE FACILITY” (priority 2003, published 2010)
Entries after “also recorded” stand apart in the source; their conditions may differ. Where two headings read alike, the source gives them in different places.

Tests used:
[1] = system: clinical isolate VanA strain of E. faecium (VRE); experiment: VRE suppression in a mouse model (Example 1); format: in vivo, mice
From the text: (§1) Mice were colonized with a clinical isolate VanA strain of E. faecium (VRE) isolated from a septicemic patient. A single inoculation of 5×10^8 cfu VRE by oral gavage (Day 0) was followed by treatment with vancomycin in the drinking water to maintain colonization. On day 22, each group received the same vancomycin-containing drinking water. […] The control group consisted of five mice, while the ramoplanin group consisted of four mice.

Total Enterococci = experiment: VRE suppression in a mouse model (Example 1), total enterococci in faeces; format: in vivo, mice
From the text: as §1

[2] = system: E. faecium C68 (VanB-type clinical VRE isolate); experiment: Minimum-inhibitory concentration for VRE C68; format: cell-based
Method: Pathogens Studied: E. faecium C68, a previously described VanB-type clinical VRE isolate, was used for the following murine VRE experiments (Donskey et al., J. Microbial. Meth. 1807: 1-8, 2003). […] Klebsiella pneumoniae P62 is a clinical isolate that produces an SHV type extended-spectrum β-lactamase (ESBL). Candida glabrata A239 is a clinical isolate with a fluconazole minimum-inhibitory concentration of 2 μg/mL.

total anaerobes = experiment: Effect on indigenous stool microflora (Example 3), quantitative culture; format: in vivo, mice; details: 100 μg/mL in drinking water, seven days
Bacteroides species = experiment: as above; format: in vivo, mice; details: 100 μg/mL in drinking water, seven days
[3] = system: facultative and aerobic gram-negative bacilli; experiment: as above; format: in vivo, mice
Lactobacillus species = experiment: as above; format: in vivo, mice
Method: Female CF1 mice (Harlan Sprague-Dawley, Indianapolis) weighing 25-30 g were used in these experiments. In order to minimize the risk of cross-contamination, mice were housed in individual cages with plastic filter tops. […] Quantitative cultures for facultative and aerobic gram-negative bacilli, enterococci, total anaerobes, Bacteroides species, Lactobacillus species, and Clostridium species were performed by plating serially-diluted specimens onto MacConkey agar (Difco Laboratories, Detroit), Enterococcosel agar (Becton Dickinson, Cockeysville, Md.), Brucella agar (Becton Dickinson), Bacteroides bile esculin agar, Rogosa agar, and Egg Yolk agar, respectively. For culture of anaerobes, stool samples were processed inside an anaerobic chamber (Coy Laboratories, Grass Lake, Mich.). Denaturing gradient gel electrophoresis (DGGE) of PCR-amplified bacterial ribosomal RNA genes from stool was performed as described by Donskey et al. (supra).

VRE [4] = experiment: Prevention of cross-transmission of VRE among mice in communal cages (Example 5); format: in vivo
Method: One set of experiments was performed to evaluate the ability of ramoplanin to prevent cross-transmission and overgrowth of VRE among mice in communal cages. High-density VRE stool colonization (˜7 log10 CFU/g) was established in 2 mice as described above. […] All mice were treated with subcutaneous clindamycin (1.4 mg) once daily for 5 days. After 9 days, all mice were separated into individual cages and supplied with regular drinking water.

K. pneumoniae P62 = experiment: Establishment of colonization during ramoplanin treatment (Example 6); format: in vivo, mice; details: inoculated on day 2 of a 6-day course, 100 μg/ml in drinking water
Method: Quantification of Stool Pathogens: Fresh stool specimens were processed as described by Donskey et al. (supra). In order to quantify VRE, K. pneumoniae, and C. glabrata, diluted samples were plated onto Enterococcosel agar containing vancomycin 20 μg/mL, MacConkey agar containing ceftazidime 10 μg/mL, or Sabouraud Dextrose Agar (Becton, Dickinson, and Company, Sparks, Md.) containing piperacillin/tazobactam 16 μg/mL and linezolid 8 μg/mL, respectively. The plates were incubated in room air at 37° C. far 24 or 48 hours, and the number of colony-forming units (CFU) of each pathogen per gram of sample was calculated.
The density of the pathogens in stool was monitored every 3-4 days. Four mice were included in each treatment group.

[5] = Oral administration to healthy male volunteers: absorption and excretion (Example 7, 7.1); format: in vivo, human
Method: Both bioassay and HPLC-based assays to assess the absorption, distribution, metabolism, and excretion were utilized in these studies.
The predetermined dose was reconstituted in 5 mL water per vial, mixed with 50 mL of sweetened, aromatized solution, and immediately administered orally to the subjects.

VRE [6] = experiment: Multiple dose study in asymptomatic carriers of gastro-intestinal VRE (Example 7.2); format: in vivo, human; details: for patients with no detectable VRE: p<0.01; for patients who remained VRE free: Day 14 (seven days after cessation)
Method: Patients were assessed by rectal swab on Days 7, 14, and 21 to determine the presence or absence of VRE. […] All VRE isolates were tested for susceptibility to ramoplanin.

E faecalis = details: 30 strains; cited from earlier work
E. faecium = details: 10 strains; cited from earlier work
S. aureus (MSSA) = details: 140 strains; cited from earlier work
S. aureus (MRSA) = details: 100 strains; cited from earlier work
S. pneumoniae = details: 20 strains; cited from earlier work
Bacillus spp. = details: 10 strains; cited from earlier work
[7] = Day 22, prior to ramoplanin therapy
[8] = Day 29, completion of ramoplanin therapy
[9] = Day 36, 7 days after completion of ramoplanin therapy
[10] = 3 days after discontinuation (day 10)
[11] = single oral doses up to 1000 mg, multiple 200, 400 or 800 mg BID 10 days, bioassay and HPLC

For Ramoplanin, the “% Mice with VRE” value [1, 7] was 100%, the “Enterococci: VRE” value [1, 7] was 9.7 log 10 cfu/g faeces and the “Enterococci: VRE” value [1, 8] was under 3.1 log 10 cfu/g faeces. For the same substance, the “% Mice with VRE” value ([1]; Day 29, completion of ramoplanin therapy (15 mg/kg/day in drinking water, with 25 mg/kg/day vancomycin)) was 0%, the “% Mice with VRE” value [1, 9] was 100% and the “Enterococci: VRE” value [1, 9] was 8.7 log 10 cfu/g faeces. For the same substance, the “VRE concentration per gram of faeces” value ([1]; after one week of treatment, all animals) was under 3.1 log units, the “Enterococci: Total Enterococci” value (Total Enterococci; [7]) was 9.8 log 10 cfu/g faeces and the “Enterococci: Total Enterococci” value (Total Enterococci; [8]) was under 2.4 log 10 cfu/g faeces. For the same substance, the “Enterococci: Total Enterococci” value (Total Enterococci; [9]) was 8.6 log 10 cfu/g faeces, the minimum-inhibitory concentration [2] was 0.125 µg/mL and the “mean density of total anaerobes in stool” value (total anaerobes) was “not significantly affected”. For the same substance, the “mean density of Bacteroides species in stool” value (Bacteroides species) was “not significantly affected”, the “mean density of total facultative and aerobic gram-negative bacilli in stool” value [3, 10] was “not significantly different from baseline” and the “mean density of total facultative and aerobic gram-negative bacilli in stool” value ([3]; day 7 of treatment, P<0.05) was “increased significantly”. For the same substance, the “Lactobacillus species in stool” value (Lactobacillus species; [10]) was “returned to pre-treatment levels”, the “Lactobacillus species in stool” value (Lactobacillus species; ramoplanin treatment, P<0.001) was “markedly reduced” and the “VRE colonization in the colonized mouse added to the communal cage” value (VRE [4]; 100 μg/ml in drinking water, clindamycin-treated mice) was “rapidly inhibited”. For the same substance, the “VRE colonization of the other mice during ramoplanin treatment” value (VRE [4]; 100 μg/ml in drinking water, communal cage) was “none of the other mice developed detectable levels of colonization”, the “mice with VRE colonization detected after discontinuation of ramoplanin” value (VRE [4]; within 5 days after transfer to individual cages, 4 of 5 mice) was 80% and the “overgrowth of K. pneumoniae P62 in stool” value (K. pneumoniae P62) was “facilitated overgrowth”. The “absorption from the human gastro-intestinal tract” value ([5]; 200, 400 or 800 mg twice a day, ten days) was “very little, if any, is absorbed; also recorded: No absorption”, the “faecal concentration, average” value ([5]; Day 3, 200 mg group) was 827 µg/g and the “faecal concentration, average” value ([5]; Day 3, 400 mg group) was 1742 µg/g. The “faecal concentration, average” value ([5]; Day 3, 800 mg group) was 1901 µg/g, the “faecal concentration, average” value ([5]; Day 10, 200 mg group) was 949 µg/g and the “faecal concentration, average” value ([5]; Day 10, 400 mg group) was 1417 µg/g. The “faecal concentration, average” value ([5]; Day 10, 800 mg group) was 2647 µg/g, the ramoplanin in urine ([5]; day 1 or 5 and pooled urine up to 72-96 after the last dose) was “no ramoplanin was detected” and the ramoplanin in serum ([5]; days 1, 5, 10, 0.5-12 hours after the morning dose, 200, 400 or 800 mg twice a day) was “not detected”. For the same substance, the faecal concentrations post-treatment ([5]; four days post-treatment) was “remained detectable in some subjects”, the ramoplanin in serum/plasma [5, 11] was “not detected” and the ramoplanin in urine [5, 11] was “not detected”. For the same substance, the “cumulative recovery in faeces” value ([5]; up to Day 4 post-treatment) was 25 % of the administered dose, the “patients with no detectable VRE” value (VRE [6]; Day 7, 100 mg BID for seven days, 17 of 21 patients) was 81.0% and the “patients with no detectable VRE” value (VRE [6]; Day 7, 400 mg BID for seven days, 18 of 20 patients) was 90.0%. For the same substance, the “patients who remained VRE free” value (VRE [6]; 100 mg BID, 6 of 21 patients) was 28.6%, the “patients who remained VRE free” value (VRE [6]; 400 mg BID, 7 of 17 patients) was 41.2% and the “number of VRE-free patients” value (VRE [6]; Day 21) was “comparable among all treatment groups”. The ramoplanin in stool (100 μg/ml dose, 3 days after discontinuation (day 10)) was “no ramoplanin was detectable”, the “concentration in stool, range” value (100 μg/ml dose, day 7 of treatment, n=5 mice) was 156 to 312.5 µg/g and the “concentration in stool, range” value (300 μg/ml dose, day 7, n=5 mice) was 300 to 320 µg/g. The “Ramoplanin MIC90” value (E faecalis) was 0.5 µg/mL, the “Ramoplanin MIC90” value (E. faecium) was 0.5 µg/mL and the “Ramoplanin MIC90” value (S. aureus (MSSA)) was 0.5 µg/mL. For the same substance, the “Ramoplanin MIC90” value (S. aureus (MRSA)) was 0.25 µg/mL, the “Ramoplanin MIC90” value (S. pneumoniae) was under 0.03 µg/mL and the “Ramoplanin MIC90” value (Bacillus spp.) was 0.25 µg/mL.
